SMILES | melting point [°C]
CN(C)c1ccc2c(n1)C(c1ccccc1Cl)=NCc1nncn1-2 | 240 to 242
CCCc1cc(=O)oc2c(C=O)c(O)c3c(c12)OC(C)(C)C=C3 | 116 to 117
CCCCCCNC(=O)Nc1cccc(Oc2ccc3nc(COc4ccc(CC5SC(=O)NC5=O)cc4)n(C)c3c2)c1 (stereo not drawn) | 144 to 147
O=C(Nc1ccccc1)Nc1cccc(-c2ccc(CC3SC(=O)NC3=O)cc2)c1 (stereo not drawn) | 185
COc1ccc2c(c1)OCC(C(=O)O)O2 (stereo not drawn) | 120 to 121
Cc1cn2nc(S(=O)(=O)Cl)nc2nc1C | 116 to 120
COc1ccc(Oc2cc(Oc3ccc(OC)cc3)c(S(N)(=O)=O)cc2C(=O)O)cc1 | 246 to 248
CCCN(CCN)CCNC(=O)c1nc(Cl)c(N)nc1N | 91 to 94
Cc1cc2cn[nH]c2c(C(=O)NC2(C3CC3)CC2)c1NC(=O)c1cc(OCC(F)(F)F)nn1-c1ncccc1Cl | 240 to 242
CC1=CC(=O)N(c2cc(NS(=O)(=O)c3cccc4c(N(C)C)cccc34)cc(N3C(=O)C=C(C)C3=O)c2)C1=O | 230
CC(=O)Oc1ccc(CCC(=O)Nc2cc(C)c(O)c(C)c2)cc1OC(C)=O | 118 to 119
COc1cc2c(cc1OC)C(c1ccccc1OC)=NN=C(C)C2 | 119 to 121
COC(=O)C=Cc1ccc(OCCn2c(=O)sc3cc(C(=O)c4ccccc4)ccc32)cc1 | 144 to 146
COc1ccc(Cl)cc1C(=N)Nc1cc(Cl)cc(NC(=O)/C=C/c2ccccc2Cl)c1 | 226 to 228
CC(=O)OC1O[C@H](CC#N)[C@@H](OC(=O)c2ccccc2)[C@H]1OC(=O)c1ccccc1 (stereo partly drawn) | 124 to 126
ONc1ccc(Cl)cc1 | 83 to 84
COc1cc(C)c(C(=O)CCCCCCCCCCCCCCCCCO)c(O)c1OC | 101
Clc1cccc(Cl)c1NCC1CC1 | 149 to 158

SMILES | melting point [°C]
COc1ccc(C(=O)O)c2c1OC(C)(C)C2 | 147 to 149
O=C(O)Cc1c(C(=O)c2ccccc2)[nH]c2cc(Cl)cc(Cl)c12 | 214 to 218
CN1CCCC(c2nc3cccnc3[nH]2)C1 (stereo not drawn) | 141 to 144
COC(=O)c1[nH]c2c(C)ccc(C)c2c1-c1ccccc1 | 143 to 145
CC(C)CC(CS)C(N)=O (stereo not drawn) | 147 to 154
CC(=O)OC[C@H]1O[C@@H]2[C@@H](Sc3ccc(Cl)cc3N2CCCN(C)C)[C@@H](OC(C)=O)[C@@H]1OC(C)=O | 149 to 151
NS(=O)(=O)c1cc2c(s1)S(=O)(=O)CC(=S)N2 | 219 to 221
Cc1ccccc1OCC(O)CNC(C)COc1cccnc1C(N)=O (stereo not drawn) | 145 to 161
O=C(NCC/C=C/CCCNC(=O)c1ccc(OC(F)F)cc1)c1ccc(OC(F)F)cc1 | 122 to 123
Cc1ccc(N2CC(=O)N(C)C(=O)N2)cc1 | 193 to 194
CC(C)(C)NS(=O)(=O)c1ccccc1-c1ccccn1 | 147 to 150
O=C1c2ccccc2C(=O)N1c1ccccc1CSc1nccn1Cc1ccccn1 | 80 to 83
CC12CCC(=O)C([N+](=O)[O-])=C1CCC1C2CCC2(C)C(OC3CC3)CCC12 (stereo not drawn) | 133 to 134
COc1cc(C=CC(=O)Nc2cnc3ccc(C)cc3c2-c2ccccc2Br)cc(OC)c1OC(C)=O | 238 to 240
CC(=O)OCC1Cc2cc(S(=O)(=O)N(C)C)c(Cl)c(Cl)c2O1 (stereo not drawn) | 159 to 160
COc1ccc(NC(=O)c2cc([N+](=O)[O-])ccc2NC(=O)CF)c(C)c1 | 237 to 239
CN(C)C(=O)C1CCN(c2c(Cl)cncc2Cl)CC1 | 120 to 122

Results, then the compound that gave them:

melting point [°C] | SMILES
190 to 191 | COc1cc2c(Nc3ccc(Cl)cc3F)ncnc2cc1OCCNC(=O)OC(C)(C)C
69 | COc1cc(Nc2nccc(Nc3ccc(OCCCO)cc3)n2)cc(OC)c1OC
253 to 257 | CC(C)C1(C)NC(c2nc(-c3ccsc3)ccc2C(=O)O)=NC1=O (stereo not drawn)
230 to 235 | CCOc1cc2ncc3c(N)nc(-c4ccc(Br)cc4)cc3c2cc1OCC
222 to 223 | Cc1nc(-c2ccc3c(c2)c2cc(-c4ccc(Cl)cc4Cl)c(=O)n(C)c2n3C)co1
88 | NCC1CCN(Cc2ccccc2)CC1
120 to 121 | Cc1c(Br)cccc1NCc1c(C(=O)O)sc2ccccc12
160 to 162 | O=C(O)c1cn(C2CC2)c2c(F)c(N3CCOC(CN4CCCCC4)C3)c(F)cc2c1=O (stereo not drawn)
62 to 64 | Cc1cc(C)c(C2C(=O)CC(CC3CCOC3)CC2=O)c(C)c1 (stereo not drawn)
106 to 108 | CC(C)Oc1ccc(NC(=O)C2(Cl)CC2)cc1C(F)(F)F
139 | Cc1cc(C)cc(C(=O)N2CCC(N3CCC(=C4c5ccccc5CCn5ccnc54)CC3)CC2Cc2ccccc2)c1 (stereo not drawn)
160 to 162 | COC(=O)c1ccc(-c2ccc(-c3ccccc3)c(-c3ccc4c(c3)C(C)(C)CCC4(C)C)c2)cn1
106 to 108 | CCNC(=O)n1nc(Oc2c(Cl)cc(C(F)(F)F)cc2Cl)cc1COC
186 to 187 | CC(C)(C)c1cc(CCc2ccccc2NC(=O)NC2CCCC2)cc(C(C)(C)C)c1O
215 to 218 | C[C@H]1[C@H](O)CN1c1c(F)cc2c(=O)c(C(=O)O)cn(C3CC3)c2c1F (relative stereo)
170 to 171 | CS(=O)(=O)c1ccc(-c2cnn(CCc3ccccc3)c(=O)c2-c2ccc(F)cc2)cc1
188 to 191 | O=C(c1ccccc1)N1CCc2nnc(NN=C3CCCCC3)cc2C1

melting point [°C] | SMILES
116 to 118 | CCOC(=O)COc1ccc(S(=O)(=O)c2ccc(C)nc2Nc2c(C)cc(C)cc2C)cc1
165 to 167 | CC(C)c1ccc2nc3ccc(C(=O)NCCCCn4ccnc4)cn3c(=O)c2c1
162 to 167 | O=C1c2ccccc2C(=O)c2cc(OCC3CO3)ccc21 (stereo not drawn)
219 to 220 | CC1(C)Oc2ccc(S(=O)(=O)C(F)(F)F)cc2[C@@H](n2ccccc2=O)[C@@H]1O (relative stereo)
88 to 91.5 | CN(C)Cc1cnc(NC(=O)[C@H](CC2CCCC2)c2ccc(S(C)(=O)=O)c(Cl)c2)cn1
181 | CCCCn1c(=O)cnn(-c2ccc(N3CCN(c4ccc(OC)cc4)CC3)cc2)c1=O
75 to 77 | COC(=O)c1ccc(C#CCc2ccc3c(c2)C(C)(C)CCC3(C)C)cc1O
194 to 196 | COC(=O)c1coc2cc(Oc3ccnc(N)n3)ccc12
245 to 247 | COc1ccccc1-c1cnc(-c2ccccc2)[nH]c1=O
86 to 87 | NC(=O)C1CCCN(C(c2ccccc2)c2ccccc2)C1 (stereo not drawn)
192 | N#Cc1cc(-c2cc(C(F)F)c3cnn(C4CCCCO4)c3n2)ccc1N (stereo not drawn)
191 to 193 | Cc1cnc(CNC(=O)c2sc(N3CCN(Cc4ccc(F)cc4)C3=O)nc2C)cn1
118 to 119 | CC(=O)Oc1c(C)c2c(-c3ccc(C(C)C)cc3)coc2c2ccccc12
91 to 91.5 | CCc1ccc2nn(-c3cc(C)ccc3O)nc2c1
142 to 144 | Cc1c(C)c(N2CCN(c3ccccc3)CC2)c(C)c2c1OC(C)(C)C2O (stereo not drawn)
95.5 to 96.5 | CCc1cn(C)cc(-c2cccc(C(F)(F)F)c2)c1=O
